Laboratory results published in US20240327364A1, “THERAPEUTIC TARGETING OF GPR68 TO INDUCE FERROPTOSIS” (University Of Maryland, Baltimore, priority 2023, published 2024).

Legend:
[1] = target: T1, MCHR2 (Homo sapiens, UniProt Q969V1); experiment: GPCR Profiler; assay type: cell-based
T1 construct: host or cells: Chem-1 cells expressing Gα15

[2] = target: T2, PIK3CA(M1043I) (Homo sapiens, UniProt P42336, M1043I); experiment: KinomeScan; assay type: binding; details: read-out: % Control
T2 construct: purchased DiscoveRx (Fremont, CA)

[3] = target: T3, MrgD (Homo sapiens, UniProt Q8TDS7); experiment: GPCR Profiler; assay type: cell-based
T3 construct: host or cells: Chem-1 cells expressing Gα15
T3 sequence (Q8TDS7 whole entry, species assumed): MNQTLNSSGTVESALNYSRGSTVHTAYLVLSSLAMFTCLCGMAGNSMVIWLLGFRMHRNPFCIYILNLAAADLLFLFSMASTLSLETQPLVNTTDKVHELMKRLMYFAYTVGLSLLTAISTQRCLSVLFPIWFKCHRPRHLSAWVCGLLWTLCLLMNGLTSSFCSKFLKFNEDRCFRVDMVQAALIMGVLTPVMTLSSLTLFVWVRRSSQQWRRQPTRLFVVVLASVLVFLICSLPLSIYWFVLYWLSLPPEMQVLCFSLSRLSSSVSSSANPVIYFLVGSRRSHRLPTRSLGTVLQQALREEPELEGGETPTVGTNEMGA

[4] = target: T4, FRK (Homo sapiens, UniProt P42685); experiment: KinomeScan; assay type: binding; details: read-out: % Control
T4 construct: purchased DiscoveRx (Fremont, CA)
T4 sequence (P42685 whole entry): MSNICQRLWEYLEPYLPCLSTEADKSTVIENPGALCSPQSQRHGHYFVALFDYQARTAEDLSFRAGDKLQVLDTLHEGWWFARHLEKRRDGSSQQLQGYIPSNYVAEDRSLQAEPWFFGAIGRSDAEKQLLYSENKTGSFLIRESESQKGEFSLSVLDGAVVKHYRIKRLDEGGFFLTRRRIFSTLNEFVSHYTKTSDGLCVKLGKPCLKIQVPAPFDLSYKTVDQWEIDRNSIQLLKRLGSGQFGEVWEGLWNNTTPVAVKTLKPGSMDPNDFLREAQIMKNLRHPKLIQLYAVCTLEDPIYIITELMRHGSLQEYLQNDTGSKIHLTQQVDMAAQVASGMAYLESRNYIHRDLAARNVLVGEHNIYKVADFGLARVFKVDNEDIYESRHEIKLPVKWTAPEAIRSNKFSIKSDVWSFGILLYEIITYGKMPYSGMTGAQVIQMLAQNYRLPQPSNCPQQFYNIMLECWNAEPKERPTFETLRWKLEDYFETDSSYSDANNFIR

[5] = target: T5, mGlu1 (Homo sapiens, UniProt Q13255); experiment: GPCR Profiler; assay type: cell-based
T5 construct: host or cells: Chem-1 cells expressing Gα15
T5 sequence (Q13255 19-1194): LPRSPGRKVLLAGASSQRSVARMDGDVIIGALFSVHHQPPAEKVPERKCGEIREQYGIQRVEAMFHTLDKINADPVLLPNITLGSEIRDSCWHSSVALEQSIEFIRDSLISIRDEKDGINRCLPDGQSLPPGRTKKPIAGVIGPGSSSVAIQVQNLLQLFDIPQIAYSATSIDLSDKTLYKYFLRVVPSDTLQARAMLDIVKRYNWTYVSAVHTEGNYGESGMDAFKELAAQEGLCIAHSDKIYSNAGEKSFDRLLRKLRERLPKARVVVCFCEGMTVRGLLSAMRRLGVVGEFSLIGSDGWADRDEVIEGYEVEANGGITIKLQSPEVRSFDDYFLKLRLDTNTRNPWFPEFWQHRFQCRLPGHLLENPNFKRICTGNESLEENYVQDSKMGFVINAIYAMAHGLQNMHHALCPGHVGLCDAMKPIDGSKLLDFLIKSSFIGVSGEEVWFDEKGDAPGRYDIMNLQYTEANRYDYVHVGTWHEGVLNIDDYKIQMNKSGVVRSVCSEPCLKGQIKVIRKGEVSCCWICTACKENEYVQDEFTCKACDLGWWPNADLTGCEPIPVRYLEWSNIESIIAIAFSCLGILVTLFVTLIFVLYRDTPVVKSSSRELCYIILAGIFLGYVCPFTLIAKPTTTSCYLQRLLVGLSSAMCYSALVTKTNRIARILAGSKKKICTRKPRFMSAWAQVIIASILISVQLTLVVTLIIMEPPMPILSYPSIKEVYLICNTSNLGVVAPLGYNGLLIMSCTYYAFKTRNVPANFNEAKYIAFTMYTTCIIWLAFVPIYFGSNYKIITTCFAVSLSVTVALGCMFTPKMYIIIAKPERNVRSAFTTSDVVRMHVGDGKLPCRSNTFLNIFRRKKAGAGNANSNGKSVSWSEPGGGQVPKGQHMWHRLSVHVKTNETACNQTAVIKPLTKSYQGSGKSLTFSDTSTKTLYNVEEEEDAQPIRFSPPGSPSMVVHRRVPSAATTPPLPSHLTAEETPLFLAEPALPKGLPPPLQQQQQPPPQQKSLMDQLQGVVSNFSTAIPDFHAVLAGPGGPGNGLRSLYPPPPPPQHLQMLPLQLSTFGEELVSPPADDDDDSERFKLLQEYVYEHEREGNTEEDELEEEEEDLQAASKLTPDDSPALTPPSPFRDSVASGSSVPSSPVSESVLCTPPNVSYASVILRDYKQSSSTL

[6] = target: T6, ERBB2 (Homo sapiens, UniProt P04626); experiment: KinomeScan; assay type: binding; details: read-out: % Control
T6 construct: purchased DiscoveRx (Fremont, CA)

[7] = target: T7, TAOK1 (Homo sapiens, UniProt Q7L7X3); experiment: KinomeScan; assay type: binding; details: read-out: % Control
T7 construct: purchased DiscoveRx (Fremont, CA)
T7 sequence (Q7L7X3 whole entry): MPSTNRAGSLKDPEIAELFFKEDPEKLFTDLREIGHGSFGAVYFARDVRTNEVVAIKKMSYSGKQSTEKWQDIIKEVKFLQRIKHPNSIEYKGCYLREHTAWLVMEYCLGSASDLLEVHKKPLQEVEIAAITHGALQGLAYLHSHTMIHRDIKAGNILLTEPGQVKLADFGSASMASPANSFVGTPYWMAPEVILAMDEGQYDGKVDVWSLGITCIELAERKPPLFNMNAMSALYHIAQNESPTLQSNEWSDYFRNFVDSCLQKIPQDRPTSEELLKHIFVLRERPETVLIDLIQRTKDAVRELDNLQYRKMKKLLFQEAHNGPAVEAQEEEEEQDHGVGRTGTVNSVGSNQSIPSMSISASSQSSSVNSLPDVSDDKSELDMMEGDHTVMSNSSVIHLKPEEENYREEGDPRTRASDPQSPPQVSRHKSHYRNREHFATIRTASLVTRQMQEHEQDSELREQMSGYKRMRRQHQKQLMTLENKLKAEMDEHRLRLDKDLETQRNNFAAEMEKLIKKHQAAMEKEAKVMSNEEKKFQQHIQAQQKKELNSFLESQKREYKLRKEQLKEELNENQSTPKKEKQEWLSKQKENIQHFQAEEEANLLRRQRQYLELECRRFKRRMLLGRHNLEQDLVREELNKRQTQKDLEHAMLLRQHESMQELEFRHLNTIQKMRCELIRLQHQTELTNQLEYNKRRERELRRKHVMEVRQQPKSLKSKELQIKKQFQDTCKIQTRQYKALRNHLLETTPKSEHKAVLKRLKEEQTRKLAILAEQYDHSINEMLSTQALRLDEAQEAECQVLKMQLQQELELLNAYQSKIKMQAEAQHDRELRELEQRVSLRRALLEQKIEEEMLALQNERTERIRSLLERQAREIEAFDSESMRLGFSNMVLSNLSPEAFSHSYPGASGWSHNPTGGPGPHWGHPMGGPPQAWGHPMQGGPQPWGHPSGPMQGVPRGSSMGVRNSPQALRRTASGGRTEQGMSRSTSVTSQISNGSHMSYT

[8] = target: T8, MAP4K4 (Homo sapiens, UniProt O95819); experiment: KinomeScan; assay type: binding; details: read-out: % Control
T8 construct: purchased DiscoveRx (Fremont, CA)

[9] = target: T9, MEK5 (Homo sapiens, UniProt Q13163); experiment: KinomeScan; assay type: binding; details: read-out: % Control
T9 construct: purchased DiscoveRx (Fremont, CA)

[10] = target: T10, MAP4K2 (Homo sapiens, UniProt Q12851); experiment: KinomeScan; assay type: binding; details: read-out: % Control
T10 construct: purchased DiscoveRx (Fremont, CA)

[11] = target: CSNK1G3 (Homo sapiens, UniProt Q9Y6M4); experiment: KinomeScan; assay type: binding; details: read-out: % Control
[12] = target: T11, NEK4 (Homo sapiens, UniProt P51957); experiment: KinomeScan; assay type: binding; details: read-out: % Control
T11 construct: purchased DiscoveRx
T11 sequence (P51957 whole entry): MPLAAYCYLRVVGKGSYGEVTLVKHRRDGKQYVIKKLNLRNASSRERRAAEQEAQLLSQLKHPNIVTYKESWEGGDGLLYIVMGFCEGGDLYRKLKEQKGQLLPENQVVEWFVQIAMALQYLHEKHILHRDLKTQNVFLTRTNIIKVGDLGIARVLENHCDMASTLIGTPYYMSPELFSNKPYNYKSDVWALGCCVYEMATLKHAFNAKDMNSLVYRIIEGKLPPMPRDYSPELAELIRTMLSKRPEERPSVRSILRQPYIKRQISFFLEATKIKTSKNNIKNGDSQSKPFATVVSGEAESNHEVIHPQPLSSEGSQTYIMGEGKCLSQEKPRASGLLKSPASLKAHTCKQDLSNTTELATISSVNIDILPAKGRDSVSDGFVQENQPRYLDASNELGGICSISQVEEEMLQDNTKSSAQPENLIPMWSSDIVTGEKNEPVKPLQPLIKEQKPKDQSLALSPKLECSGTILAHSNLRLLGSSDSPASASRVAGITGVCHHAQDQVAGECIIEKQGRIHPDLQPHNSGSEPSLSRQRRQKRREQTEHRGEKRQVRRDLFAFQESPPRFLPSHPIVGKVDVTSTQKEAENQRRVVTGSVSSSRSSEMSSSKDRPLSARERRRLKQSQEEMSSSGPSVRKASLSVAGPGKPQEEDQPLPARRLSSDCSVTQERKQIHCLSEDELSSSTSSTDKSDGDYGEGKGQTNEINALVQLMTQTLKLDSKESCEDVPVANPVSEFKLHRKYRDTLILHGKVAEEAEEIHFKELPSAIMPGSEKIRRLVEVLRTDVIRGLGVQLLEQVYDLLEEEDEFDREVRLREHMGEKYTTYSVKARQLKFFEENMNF

[13] = target: T12, CGRP1 (Homo sapiens, UniProt O60894+Q16602); experiment: GPCR Profiler; assay type: cell-based
T12 construct: host or cells: Chem-1 cells with Gα15
T12 sequence (Q16602 23-461): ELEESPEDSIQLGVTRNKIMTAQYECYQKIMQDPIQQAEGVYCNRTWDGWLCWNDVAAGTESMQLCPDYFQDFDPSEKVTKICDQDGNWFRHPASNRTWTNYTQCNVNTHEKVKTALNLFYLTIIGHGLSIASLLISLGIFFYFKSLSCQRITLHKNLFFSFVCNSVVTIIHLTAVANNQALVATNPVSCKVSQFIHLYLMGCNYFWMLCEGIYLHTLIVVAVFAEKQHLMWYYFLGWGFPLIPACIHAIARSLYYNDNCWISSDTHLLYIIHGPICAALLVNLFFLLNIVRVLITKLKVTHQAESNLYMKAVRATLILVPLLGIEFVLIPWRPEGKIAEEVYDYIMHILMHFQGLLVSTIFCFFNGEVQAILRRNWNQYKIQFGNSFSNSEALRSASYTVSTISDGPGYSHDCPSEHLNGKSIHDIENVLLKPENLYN
T12 sequence (O60894 27-148 partner): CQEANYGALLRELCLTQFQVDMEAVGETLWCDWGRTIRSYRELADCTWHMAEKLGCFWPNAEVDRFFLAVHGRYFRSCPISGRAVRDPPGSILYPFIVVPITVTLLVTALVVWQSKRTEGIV

[14] = target: GPR68 (Homo sapiens, UniProt Q15743); experiment: Flow-induced calcium response, Chem1-GPR68 cells; assay type: cell-based; design: host or cells: Chem-1 cells (Chem1-OGR1); details: 5-minute pre-incubation with 3 μM OGM2
Procedure: Chem1-GPR68 cells were stained with calcium indicator dye, and then exposed to 34 dyn/cm^2 (3.4 Pa) of force, generating a robust calcium response that could be inhibited by a 5-minute pre-incubation with 3 μM OGM2. […] Of note, one example of a method to enhance expression of ATF4 gene is using CRISPRa with sgRNA targeting the ATF4 gene, including with the s RNAs with the following sequences: […]

[15] = tested on: RWGT2; experiment: Cell Titer-Glo viability, Lung cancer, squamous cell; assay type: cell-based
Procedure: (§1) OGM2 kills wide variety of cancer cell types. Cell sensitivity can be classified in to Very Sensitive (LC50<2 μM), Sensitive (LC50=2 to 10 μM), Mildly Sensitive (LC50>10 μM), and Refractory (no killing at 10 μM). The listed established cell were incubated with OGM2 at 2 μM or 10 μM for 72 hours under standard cell culture conditions, and relative cell number was assessed using Cell Titer-Glo Luminescent Cell Viability Assay (Promega™) following the manufacturer's instructions. Luminescence was determined using a Cytation 5 reader and Gen5 software package (BioTek™).
(§2) Cancer cells, which are very sensitive to killing by OGM2 (LCs <2 μM), with reported mRNA expression of GPR68 and the related proton sensing receptor GPR4. LC50's (concentrations causing 50% lethality) were determined using CellTiter-Glo (Promega™, G7570). Cells were plated in 12-well plates (CELLTREAT Scientific Products, 229112) in 1 ml of DMEM with high glucose, GlutaMAX, HEPES, or RPMI 1640 with Penicillin-Streptomycin (ThermoFisher™, 10564029, 11875119 and 15140122) and 10% FBS. Cells were incubated overnight at 37° C. in 5% CO2. Then 1 mL of fresh media was added with DMSO, OGM, or positive control (Erastin; APExBIO Technology, LLC, B1524) and cells incubated for 3 days. On the third day, all media was removed, cells were rinsed with 1×PBS, PBS was removed, and 200 μL of 1× Passive Lysis Buffer (Promega™, E1941) was added to each well. […]. Subsequently, 20 μL of lysate was added to 100 μL CellTiter-Glo™ reagent on a LUMITRAC 200 plate (Greiner™ bio-one, 82050-726). Plates were briefly spun down and read on a GloMax-Multi Detection System (Promega™).
(§3) The cells listed in the tables above were incubated with OGM2 at 2 μM or 10 μM for 72 hours under standard cell culture conditions, and relative cell number was assessed using Cell Titer-Glo Luminescent Cell Viability Assay (Promega™) following the manufacturer's instructions. Luminescence was determined using a Cytation 5 reader and Gen5 software package (BioTek™). RNA expression of GPR68 and GPR4 in the corresponding cancer cell lines are listed, according to the publicly available The Human Protein Atlas version 22.0 and Ensembl version 103.38 (see proteinatlas.org). The consensus normalized expression value (“nTPM”=normalize transcript per million) was calculated as the maximum nTPM value for each gene in the two data sources.

[16] = tested on: HT-29; experiment: Cell Titer-Glo viability, Colorectal adenocarcinoma; assay type: cell-based; design: key to Class: Very Sensitive (LC50<2 μM); Sensitive (LC50=2 to 10 μM); Mildly Sensitive (LC50>10 μM); Refractory (no killing at 10 μM)
Procedure: as §1, §2, §3

[17] = tested on: Panc02; experiment: Cell Titer-Glo viability, Pancreatic adenocarcinoma; assay type: cell-based
Procedure: as §1, §2, §3

[18] = tested on: BxPC-3; experiment: as above; assay type: cell-based
Procedure: as §1, §2, §3

T1 sequence (Q969V1 whole entry, species assumed): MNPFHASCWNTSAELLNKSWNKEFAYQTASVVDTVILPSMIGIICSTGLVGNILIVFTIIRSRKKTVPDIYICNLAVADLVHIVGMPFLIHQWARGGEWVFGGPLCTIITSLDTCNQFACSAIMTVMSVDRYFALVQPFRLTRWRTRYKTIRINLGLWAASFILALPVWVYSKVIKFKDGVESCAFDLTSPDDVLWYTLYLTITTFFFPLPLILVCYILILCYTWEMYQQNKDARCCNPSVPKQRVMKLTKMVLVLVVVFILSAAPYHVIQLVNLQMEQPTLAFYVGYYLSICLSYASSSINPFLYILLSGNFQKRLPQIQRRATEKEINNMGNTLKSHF

## CCc1ccc2c(c1)C1(NN=C(c3cccc4ccccc34)S1)C(=O)N2 (stereo not shown) [OGM1, 5-ethyl-5′-naphthalen-1-ylspiro[1H-indole-3,2′-3H-1,3,4-thiadiazole]-2-one]
[1]; 10 uM
  Antagonism: −8.2
[1]; 12.5 uM
  Agonism: 0.3
[2]
  remaining binding at 10 µM: 59%
[3]; 10 uM
  Antagonism: −2.2
[3]; 12.5 uM
  Agonism: −0.1
[4]
  remaining binding at 10 µM: 100%
[5]; 10 uM
  Antagonism: −12.7
[5]; 12.5 uM
  Agonism: 1.1
[6]
  remaining binding at 10 µM: 65%
[7]
  remaining binding at 10 µM: 83%
[8]
  remaining binding at 10 µM: 100%
[9]
  remaining binding at 10 µM: 92%
[10]
  remaining binding at 10 µM: 83%
[11]
  remaining binding at 10 µM: 100%
[12]
  remaining binding at 10 µM: 100%
[13]; 10 uM
  Antagonism: −2.3
[13]; 12.5 uM
  Agonism: 0.5

## CCc1ccc2c(c1)C1(NN=C(c3ccccc3)S1)C(=O)N2 (stereo not shown) [OGM2]
[14]
  calcium response to 34 dyn/cm^2 flow: inhibited
[15]
  Class: Very Sensitive (Very Sensitive (LC50<2 μM))
[15]; 72 hours
  % Survival 2 μM OGM: 39.9%
  % Survival 10 μM OGM: 37.1%
[15]; Homo sapiens, 72 hours, read-out: LC50 (the source's name)
  CC50: < 2 µM
[16]
  Class: Refractory
[16]; 72 hours
  % Survival 2 μM OGM: 102.8%
  % Survival 10 μM OGM: 103.9%
  LC50 (μM): No
[17]
  Class: Sensitive (Sensitive (LC50=2 to 10 μM))
[17]; 72 hours
  % Survival 2 μM OGM: 72.5%
  % Survival 10 μM OGM: 40.5%
[17]; Mus musculus, Panc02, 72 hours, read-out: LC50 (the source's name)
  CC50: 2 to 10 µM
[18]
  Class: Mildly
[18]; 72 hours
  % Survival 2 μM OGM: 81.5%
  % Survival 10 μM OGM: 83.8%
[18]; Homo sapiens, BXPC-3, 72 hours, read-out: LC50 (the source's name)
  CC50: > 10 µM
